Article PMC7795425, “Synthesis and Biological Activity of Brassinosteroid Analogues with a Nitrogen-Containing Side Chain” (International Journal of Molecular Sciences, 2020)
“Also recorded” adds a separate entry of the source. Where a name gives a salt, the structure may show the parent alone.

Key:
[1] = tested on: Arabidopsis thaliana L. (Columbia ecotype, Col-0) seedlings; test: Arabidopsis root sensitivity bioassay; assay type: in vivo; details: for root length, mean: 7-day-old seedlings; for elongation of roots (growth-promoting activity) compared to the control: low concentrations (0.1 and 1 nM)
Description: Several bioassays such as the first bean internode, root growth and rice lamina inclination have been developed to evaluate the growth-promoting activity of BR derivatives. In this work, the activity of new BR analogues was evaluated using the Arabidopsis root sensitivity test because of its simplicity and high sensitivity for BRs.. The characteristic effect of exogenously applied BRs on light-grown Arabidopsis is dose-dependent—BRs in higher concentrations cause inhibition of root growth; vice versa, low concentrations are stimulating. The results obtained for 24-epiBL, which was used as a positive control, and the BR derivatives are shown in Figure 2, Figure 3 and Figure S21. […] A similar trend was shown for dimethylammonium hydrochloride 22a and morpholinium hydrochloride 22e with a long side chain. For numerical values of the average, SD and p-value, see Table S2.
The biological activity of the new BRs derivatives was tested by an Arabidopsis sensitivity bioassay which was performed according to [28]. Briefly, seedlings of Arabidopsis thaliana L. (Columbia ecotype, Col-0) were stratified for 2 days at 4 °C and germinated on vertical half-strength Murashige and Skoog (1% w/v sucrose) agar at 22 °C in a 16 h/8 h light–dark cycle. The plates contained concentrations of 24-epiBL (as positive control) and BR derivatives ranging from 0.1 to 10 nM, respectively 100 nM (for selected derivatives only). After 7 days, roots were straightened on solid media plates and scanned with an Epson high-resolution scanner. The entire root length was measured with ImageJ (http://rsbweb.nih.gov/ij/). For each treatment, more than 15 seedlings were analyzed in two biological repeats, and p-values were calculated with the two-tailed Student t-test using Excel software.
(§1) Figure 2 Effect of selected brassinosteroid derivatives on the inhibition of Arabidopsis root length. Seven-day-old Arabidopsis thaliana seedlings (Columbia ecotype, Col-0) were treated with DMSO as control/24epiBL/BR short side chain derivatives; (A)—amides, (B)—amines, (C)—ammonium hydrochlorides. For each treatment, more than 15 seedlings were analyzed in two biological repeats. Error bars represent SD. Asterisks represent significant changes (t-test); * represents p-value < 0.05, in comparison to control.
as §1, with “Figure 3” for “Figure 2”, “control/24epiBL/BR long” for “control/24epiBL/BR short”, “(A)—amides, (B)—ammonium” for “(A)—amides, (B)—amines, (C)—ammonium”
Table S2: Data for figure 2, 3, and S21. P value <0.05(t-test), comparison to control.
control (mean ± SD) 16.3 ± 1.21
*only selected compounds were tested
mean(mm) SD t-test mean (mm) SD t-test mean (mm) SD t-test mean (mm) SD t-test
(1 picture or pasted object on this page, not shown here)

[2] = Calcein AM cytotoxicity assay, CEM; assay type: cell-based; details: human, CEM T-lymphoblastic leukemia cells, IC50 > 50 µM means inactive, read-out: Cytotoxic activity IC50
Description: (§2) The effect of the prepared BRs derivatives on the viability (in Calcein AM assays) of BJ human fibroblasts (as an example of a “normal” cell line) and human cancer cell lines of various histopathological origins, including: T-lymphoblastic leukemia CEM, breast carcinoma MCF7 and cervical carcinoma cell line HeLa, was also studied. Cells of all these lines were exposed to six 3-fold dilutions of each drug for 72 h prior to determination of cell survival. The IC50 (concentration leading to 50% inhibition of viability) values obtained from the Calcein AM cytotoxicity assay were calculated. […] All tested BR nitrogen-containing derivatives had no detectable activity, even when tested in concentrations of up to 50 µM.
(§3) The screening cell lines: T-lymphoblastic leukemia CEM; breast carcinoma MCF7 (estrogen-sensitive); cervical carcinoma cell line HeLa; and human foreskin fibroblasts BJ, were obtained from the American Type Culture Collection (Manassas, VA, USA). Cells were cultured in DMEM (Dulbecco’s Modified Eagle Medium, Sigma, St. Louis, MO, USA). Media used were supplemented with 10% fetal bovine serum, 2mM L-glutamine and 1% penicillin–streptomycin. The cell lines were maintained under standard cell culture conditions at 37 °C and 5% CO2 in a humid environment.
(§4) Cells were subcultured twice or three times a week using the standard trypsinization procedure. Cytotoxicity in cancer cell lines after 72 h was determined as described earlier. Control cultures were treated with DMSO alone, and the final concentration of DMSO in the mixture never exceeded 0.6%. Six serial 3-fold dilutions of the test substances were added at time zero in 20 μL aliquots to the microtiter plate wells and the highest final concentration in the wells was 50 μM.
(§5) Table S3: Cytotoxic activities, IC50 (µM/L)a, of compounds in three tumor and one normal fibroblast
(§6) Compound CEM MCF7 HeLa BJ
(§7) a The lowest concentration that kills 50% of cells.
(§8) b Increase of cell proliferation.

[3] = Calcein AM cytotoxicity assay, MCF7; assay type: cell-based; details: human, MCF7 breast carcinoma cells (estrogen-sensitive), MCF7, 72 h, IC50 > 50 µM means inactive, read-out: Cytotoxic activity IC50
Description: as §2, §3, §4, §5, §6, §7, §8

[4] = Calcein AM cytotoxicity assay, HeLa; assay type: cell-based; details: human, HeLa cervical carcinoma cells, IC50 > 50 µM means inactive, read-out: Cytotoxic activity IC50
Description: as §2, §3, §4, §5, §6, §7, §8

[5] = Calcein AM cytotoxicity assay, BJ; assay type: cell-based; details: human, BJ foreskin fibroblasts (normal cell line), IC50 > 50 µM means inactive, read-out: Cytotoxic activity IC50
Description: as §2, §3, §4, §5, §6, §7, §8

[6] = 100 nM (only selected compounds), control 14.61 ± 0.85

Compound | melting point | root length, mean ([1]; 0.1 nM, control 16.3 ± 1.21) [mm] | root length, mean ([1]; 1 nM, control 16.3 ± 1.21) [mm] | root length, mean ([1]; 10 nM, control 16.3 ± 1.21) [mm] | root length, mean [1, 6] [mm] | elongation of roots (growth-promoting activity) compared to the control [1] | inhibitory effect on Arabidopsis root growth ([1]; tested 0.1 to 10 nM, selected derivatives also 100 nM) | IC50 at 72 h [2] [µM] | IC50 at 72 h [3] [µM] | IC50 at 72 h [4] [µM] | IC50 at 72 h [5] [µM] | concentration inhibiting Arabidopsis root growth ([1]; light-grown seedlings, positive control) [nM]
C[C@H](CN(C)C)[C@H]1CCC2C3CC(=O)[C@H]4C[C@H](O)[C@H](O)C[C@]4(C)C3CC[C@@]21C (stereo partly drawn) (as salt: chloride) [16a, N,N-dimethyl-((20S)-2α,3α-dihydroxy-6-oxo-5α-pregnane-20-methyl)aminium chloride] | > 290 °C (dec.) |  |  |  |  |  |  |  |  |  |  | 
CCN(CC)C[C@@H](C)[C@H]1CCC2C3CC(=O)[C@H]4C[C@H](O)[C@H](O)C[C@]4(C)C3CC[C@@]21C (stereo partly drawn) (as salt: chloride) [16b, N,N-diethyl-((20S)-2α,3α-dihydroxy-6-oxo-5α-pregnane-20-methyl)aminium chloride] | > 270 °C (dec.) |  |  |  |  |  |  |  |  |  |  | 
C[C@H](CN1CCCC1)[C@H]1CCC2C3CC(=O)[C@H]4C[C@H](O)[C@H](O)C[C@]4(C)C3CC[C@@]21C (stereo partly drawn) (as salt: chloride) [16c, 1-((20S)-2α,3α-dihydroxy-6-oxo-5α-pregnane-20-methyl)pyrrolidin-1-ium chloride] | > 260 °C (dec.) |  |  |  |  |  |  |  |  |  |  | 
C[C@H](CN1CCCCC1)[C@H]1CCC2C3CC(=O)[C@H]4C[C@H](O)[C@H](O)C[C@]4(C)C3CC[C@@]21C (stereo partly drawn) (as salt: chloride) [16d, 1-((20S)-2α,3α-dihydroxy-6-oxo-5α-pregnane-20-methyl)piperidin-1-ium chloride] | > 280 °C (dec.) |  |  |  |  |  |  |  |  |  |  | 
C[C@H](CN1CCOCC1)[C@H]1CCC2C3CC(=O)[C@H]4C[C@H](O)[C@H](O)C[C@]4(C)C3CC[C@@]21C (stereo partly drawn) (as salt: chloride) [16e, 4-((20S)-2α,3α-dihydroxy-6-oxo-5α-pregnane-20-methyl)morpholin-4-ium chloride] | > 240 °C (dec.) |  |  |  |  |  |  |  |  |  |  | 
C[C@H](C(=O)N(C)C)[C@H]1CC[C@H]2[C@@H]3CC(=O)[C@H]4C[C@H](O)[C@H](O)C[C@]4(C)[C@H]3CC[C@]12C [8a, N,N-dimethyl-(20S)-2α,3α-dihydroxy-6-oxo-5α-pregnane-20-carboxamide] | > 230 °C (dec.) | 16.12 | 18.41 | 16.46 | 13.329 | slight elongation of roots; also recorded: interesting growth-promoting activity | weak inhibition up to the highest tested concentration of 100 nM | > 50 | > 50 | > 50 | > 50 | 
CCN(CC)C(=O)[C@@H](C)[C@H]1CC[C@H]2[C@@H]3CC(=O)[C@H]4C[C@H](O)[C@H](O)C[C@]4(C)[C@H]3CC[C@]12C [8b, N,N-diethyl-(20S)-2α,3α-dihydroxy-6-oxo-5α-pregnane-20-carboxamide] | > 200 °C (dec.) | 18.41 | 15.15 | 16.95 | 13.836 | slight elongation of roots; also recorded: interesting growth-promoting activity |  | > 50 | > 50 | > 50 | > 50 | 
C[C@H](CN(C)C)[C@H]1CCC2C3CC(=O)[C@H]4C[C@H](O)[C@H](O)C[C@]4(C)C3CC[C@@]21C (stereo partly drawn) [16a, N,N-dimethyl-((20S)-2α,3α-dihydroxy-6-oxo-5α-pregnane-20-methyl)aminium chloride] |  | 18.91 | 15.64 | 15.32 | 13.626 |  |  | > 50 | > 50 | > 50 | > 50 | 
CCN(CC)C[C@@H](C)[C@H]1CCC2C3CC(=O)[C@H]4C[C@H](O)[C@H](O)C[C@]4(C)C3CC[C@@]21C (stereo partly drawn) [16b, N,N-diethyl-((20S)-2α,3α-dihydroxy-6-oxo-5α-pregnane-20-methyl)aminium chloride] |  | 17.27 | 17.61 | 16.13 |  |  |  | > 50 | > 50 | > 50 | > 50 | 
C[C@H](CN1CCCC1)[C@H]1CCC2C3CC(=O)[C@H]4C[C@H](O)[C@H](O)C[C@]4(C)C3CC[C@@]21C (stereo partly drawn) [16c, 1-((20S)-2α,3α-dihydroxy-6-oxo-5α-pregnane-20-methyl)pyrrolidin-1-ium chloride] |  | 15.97 | 14.99 | 15.16 |  |  |  | > 50 | > 50 | > 50 | > 50 | 
C[C@H](CN1CCCCC1)[C@H]1CCC2C3CC(=O)[C@H]4C[C@H](O)[C@H](O)C[C@]4(C)C3CC[C@@]21C (stereo partly drawn) [16d, 1-((20S)-2α,3α-dihydroxy-6-oxo-5α-pregnane-20-methyl)piperidin-1-ium chloride] |  | 15.32 | 15.65 | 17.61 |  |  |  | > 50 | > 50 | > 50 | > 50 | 
C[C@H](CN1CCOCC1)[C@H]1CCC2C3CC(=O)[C@H]4C[C@H](O)[C@H](O)C[C@]4(C)C3CC[C@@]21C (stereo partly drawn) [16e, 4-((20S)-2α,3α-dihydroxy-6-oxo-5α-pregnane-20-methyl)morpholin-4-ium chloride] |  | 17.21 | 17.61 | 16.13 | 13.771 | slight elongation of roots; also recorded: interesting growth-promoting activity |  | > 50 | > 50 | > 50 | > 50 | 
CC(C)[C@@H](C)[C@@H](O)[C@H](O)[C@@H](C)[C@H]1CC[C@H]2[C@@H]3COC(=O)[C@H]4C[C@H](O)[C@H](O)C[C@]4(C)[C@H]3CC[C@]12C [24-epiBL, 24-epibrassinolide, reference compound] |  | 15.811 | 13.855 | 7.342 | 6.685 |  |  |  |  |  |  | ≥ 1
